≈ marks a conversion by molar mass, not a printed value.
Assays:
Assay type in all cases: cell-based
[1] = test system: Streptococcus haemolyticus A 266; settings: A266, agar serial dilution, 24 hours at 37°C
Proteus mirabilis A 1200 = settings: A1200, agar serial dilution, 24 hours at 37°C
[2] = test system: Streptococcus faecalis L 80; settings: Enterococcus faecalis, L80; agar serial dilution, 24 hours at 37°C
[3] = test system: Klebsiella pneumoniae A 809; settings: A809, agar serial dilution, 24 hours at 37°C
[4] = test system: Staphylococcus aureus A 355'; settings: agar serial dilution, 24 hours at 37°C
Proteus rettgeri A 821 = settings: Providencia rettgeri, A821; agar serial dilution, 24 hours at 37°C
Escherichia coli U 20 = settings: U20, agar serial dilution, 24 hours at 37°C
[5] = test system: Bacillus subtilis ATCC 6633; settings: ATCC6633, agar serial dilution, 24 hours at 37°C
[6] = test system: Pseudomonas aeruginosa Wyeth A 1058; settings: WYETHA1058, agar serial dilution, 24 hours at 37°C
Proteus morganii 2241 = settings: Morganella morganii, agar serial dilution, 24 hours at 37°C
[7] = test system: Staphylococcus aureus A 321; settings: A321, agar serial dilution, 24 hours at 37°C
[8] = test system: Pseudomonas aeruginosa H 10; settings: H10, agar serial dilution, 24 hours at 37°C
[9] = test system: Pasteurella multocida A 723; settings: A723, agar serial dilution, 24 hours at 37°C
[10] = test system: Staphylococcus aureus A 2000; settings: A2000, agar serial dilution, 24 hours at 37°C
[11] = test system: Salmonella typhimurium R 127; settings: Salmonella enterica, agar serial dilution, 24 hours at 37°C
[12] = test system: Pseudomonas aeruginosa 2396; settings: agar serial dilution, 24 hours at 37°C
Proteus mirabilis H 3 = settings: H3, agar serial dilution, 24 hours at 37°C
Salmonella dublin P 43 = settings: Salmonella enterica, P43; agar serial dilution, 24 hours at 37°C
[13] = test system: Diplococcus pneumoniae L 54; settings: Streptococcus pneumoniae, L54; agar serial dilution, 24 hours at 37°C
[14] = test system: Staphylococcus aureus A 2001; settings: A2001, agar serial dilution, 24 hours at 37°C

| MIC (Proteus mirabilis A 1200) [µg/mL] | MIC [2] [µg/mL] | MIC [3] [µg/mL] | MIC [4] [µg/mL] | MIC (Proteus rettgeri A 821) [µg/mL] | MIC (Escherichia coli U 20) [µg/mL] | MIC [5] [µg/mL] | MIC [6] [µg/mL] | MIC (Proteus morganii 2241) [µg/mL] | MIC [7] [µg/mL] | MIC [8] [µg/mL] | MIC [9] [µg/mL] | MIC [10] [µg/mL] | MIC [11] [µg/mL] | MIC [12] [µg/mL] | MIC (Proteus mirabilis H 3) [µg/mL] | MIC (Salmonella dublin P 43) [µg/mL] | MIC [13] [µg/mL] | MIC [14] [µg/mL] | Structure (SMILES) | MIC [1] [µg/mL] |
| --- | --- | --- | --- | --- | --- | --- | --- | --- | --- | --- | --- | --- | --- | --- | --- | --- | --- | --- | --- | --- |
| 6 (≈ 11.7 µM) | 25 (≈ 48.7 µM) | 100 (≈ 195 µM) | 25 (≈ 48.7 µM) | 0.75 (≈ 1.46 µM) | 25 (≈ 48.7 µM) | 1.5 (≈ 2.92 µM) | > 100 | 100 (≈ 195 µM) | 1.5 (≈ 2.92 µM) | > 100 | 0.5 (≈ 0.974 µM) | 25 (≈ 48.7 µM) | 50 (≈ 97.4 µM) | > 100 | – | – | – | – | CC(C)NS(=O)(=O)NC(=O)N[C@@H](C(=O)N[C@@H]1C(=O)N2[C@@H]1SC(C)(C)[C@@H]2C(=O)O)c1ccccc1 [IX, D-6-[α-{3-(isopropylaminosulfonyl)-ureido}-benzylcarbonamido]-penicillanic acid] | 0.75 (≈ 1.46 µM) |
| 3 (≈ 5.48 µM) | 25 (≈ 45.7 µM) | 25 (≈ 45.7 µM) | 25 (≈ 45.7 µM) | 1.5 (≈ 2.74 µM) | 12.5 (≈ 22.8 µM) | 1 (≈ 1.83 µM) | 50 (≈ 91.3 µM) | 25 (≈ 45.7 µM) | 1 (≈ 1.83 µM) | 50 (≈ 91.3 µM) | 25 (≈ 45.7 µM) | 12.5 (≈ 22.8 µM) | 25 (≈ 45.7 µM) | 25 (≈ 45.7 µM) | 3 (≈ 5.48 µM) | 12.5 (≈ 22.8 µM) | 1 (≈ 1.83 µM) | 3 (≈ 5.48 µM) | CC1(C)S[C@@H]2[C@H](NC(=O)[C@H](NC(=O)NS(=O)(=O)Nc3ccccc3)c3ccccc3)C(=O)N2[C@H]1C(=O)O [VII, D-6-[α-{3-(phenylaminosulfonyl)-ureido}-benzylcarbonamido]-penicillanic acid] | 1 (≈ 1.83 µM) |
| 50 (≈ 90 µM) | 6 (≈ 10.8 µM) | 25 (≈ 45 µM) | – | 25 (≈ 45 µM) | 25 (≈ 45 µM) | 1 (≈ 1.8 µM) | 50 (≈ 90 µM) | 100 (≈ 180 µM) | 1 (≈ 1.8 µM) | 100 (≈ 180 µM) | 6 (≈ 10.8 µM) | – | 100 (≈ 180 µM) | 50 (≈ 90 µM) | 100 (≈ 180 µM) | 25 (≈ 45 µM) | 1 (≈ 1.8 µM) | 6 (≈ 10.8 µM) | CC(C)N(C(C)C)S(=O)(=O)NC(=O)N[C@@H](C(=O)N[C@@H]1C(=O)N2[C@@H]1SC(C)(C)[C@@H]2C(=O)O)c1ccccc1 [VIII, D-6-[α-{3-(diisopropylaminosulfonyl)-ureido}-benzylcarbonamido]-penicillanic acid] | 0.25 (≈ 0.45 µM) |
| 3 (≈ 5.38 µM) | 25 (≈ 44.8 µM) | 100 (≈ 179 µM) | 25 (≈ 44.8 µM) | < 0.75 | 25 (≈ 44.8 µM) | 1 (≈ 1.79 µM) | 25 (≈ 44.8 µM) | 50 (≈ 89.7 µM) | 3 (≈ 5.38 µM) | > 100 | 0.25 (≈ 0.448 µM) | 12.5 (≈ 22.4 µM) | 50 (≈ 89.7 µM) | 100 (≈ 179 µM) | 1.5 (≈ 2.69 µM) | 25 (≈ 44.8 µM) | 1.5 (≈ 2.69 µM) | 12.5 (≈ 22.4 µM) | CCOC(=O)CNS(=O)(=O)NC(=O)N[C@@H](C(=O)N[C@@H]1C(=O)N2[C@@H]1SC(C)(C)[C@@H]2C(=O)O)c1ccccc1 [X, D-6-[α-{3-(ethoxycarbonylmethylaminosulfonyl)-ureido}-benzylcarbonamido]-penicillanic acid] | 0.25 (≈ 0.448 µM) |
| – | 6 (≈ 10.9 µM) | > 100 | – | 3 (≈ 5.47 µM) | > 100 | 0.25 (≈ 0.456 µM) | 50 (≈ 91.1 µM) | > 100 | 3 (≈ 5.47 µM) | > 100 | 0.5 (≈ 0.911 µM) | – | > 100 | 50 (≈ 91.1 µM) | < 0.75 | 50 (≈ 91.1 µM) | 0.25 (≈ 0.456 µM) | – | CC1(C)S[C@@H]2[C@H](NC(=O)[C@H](NC(=O)NS(=O)(=O)Nc3cccnc3)c3ccccc3)C(=O)N2[C@H]1C(=O)O [XI, D-6-[α-{3-(pyrid-3-ylaminosulfonyl)-ureido}-benzylcarbonamido]-penicillanic acid] | 0.12 (≈ 0.219 µM) |

Further lines, the compound ahead of its results:

| Structure (SMILES) | MIC (Proteus mirabilis A 1200) [µg/mL] | MIC [2] [µg/mL] | MIC [3] [µg/mL] | MIC [4] [µg/mL] | MIC (Proteus rettgeri A 821) [µg/mL] | MIC (Escherichia coli U 20) [µg/mL] | MIC [5] [µg/mL] | MIC [6] [µg/mL] | MIC (Proteus morganii 2241) [µg/mL] | MIC [7] [µg/mL] | MIC [8] [µg/mL] | MIC [9] [µg/mL] | MIC [10] [µg/mL] | MIC [11] [µg/mL] | MIC [12] [µg/mL] | MIC (Proteus mirabilis H 3) [µg/mL] | MIC (Salmonella dublin P 43) [µg/mL] | MIC [13] [µg/mL] | MIC [14] [µg/mL] | MIC [1] [µg/mL] |
| --- | --- | --- | --- | --- | --- | --- | --- | --- | --- | --- | --- | --- | --- | --- | --- | --- | --- | --- | --- | --- |
| CCOS(=O)(=O)NC(=O)N[C@@H](C(=O)N[C@@H]1C(=O)N2[C@@H]1SC(C)(C)[C@@H]2C(=O)O)c1ccccc1 [VI, D-6-[α-{3-(ethoxysulfonyl)-ureido}-benzylcarbonamido]-penicillanic acid] | 1.5 (≈ 3 µM) | 25 (≈ 49.9 µM) | > 100 | 50 (≈ 99.9 µM) | 1.5 (≈ 3 µM) | 12.5 (≈ 25 µM) | 0.25 (≈ 0.499 µM) | 25 (≈ 49.9 µM) | > 100 | 1.5 (≈ 3 µM) | 100 (≈ 200 µM) | > 100 | 12.5 (≈ 25 µM) | 25 (≈ 49.9 µM) | 25 (≈ 49.9 µM) | 12.5 (≈ 25 µM) | 6 (≈ 12 µM) | 6 (≈ 12 µM) | 6 (≈ 12 µM) | 0.25 (≈ 0.499 µM) |
| Cc1cc(NS(=O)(=O)NC(=O)N[C@@H](C(=O)N[C@@H]2C(=O)N3[C@@H]2SC(C)(C)[C@@H]3C(=O)O)c2ccccc2)no1 [XII, D-6-[α-{3-(5-methylisoxazol-3-yl-aminosulfonyl)-ureido}-benzylcarbonamido]-penicillanic acid] | 1.5 (≈ 2.71 µM) | 25 (≈ 45.2 µM) | 50 (≈ 90.5 µM) | 25 (≈ 45.2 µM) | 6 (≈ 10.9 µM) | 25 (≈ 45.2 µM) | 1.5 (≈ 2.71 µM) | 25 (≈ 45.2 µM) | 50 (≈ 90.5 µM) | 3 (≈ 5.43 µM) | 100 (≈ 181 µM) | 1.5 (≈ 2.71 µM) | 25 (≈ 45.2 µM) | 25 (≈ 45.2 µM) | 25 (≈ 45.2 µM) | 6 (≈ 10.9 µM) | 12.5 (≈ 22.6 µM) | – | 12.5 (≈ 22.6 µM) | 1.5 (≈ 2.71 µM) |
| Cc1noc(NS(=O)(=O)NC(=O)N[C@@H](C(=O)N[C@@H]2C(=O)N3[C@@H]2SC(C)(C)[C@@H]3C(=O)O)c2ccccc2)c1C [XIII, D-6-[α-{3-(3,4-dimethylisoxazol-5-yl-aminosulfonyl)ureido}-benzylcarbonamido]-penicillanic acid] | 6 (≈ 10.6 µM) | 12.5 (≈ 22.1 µM) | 100 (≈ 176 µM) | 25 (≈ 44.1 µM) | 3 (≈ 5.29 µM) | 12.5 (≈ 22.1 µM) | 0.5 (≈ 0.882 µM) | 25 (≈ 44.1 µM) | 100 (≈ 176 µM) | 1 (≈ 1.76 µM) | 100 (≈ 176 µM) | 0.12 (≈ 0.212 µM) | 12.5 (≈ 22.1 µM) | 50 (≈ 88.2 µM) | 50 (≈ 88.2 µM) | 12.5 (≈ 22.1 µM) | 25 (≈ 44.1 µM) | 1.5 (≈ 2.65 µM) | 3 (≈ 5.29 µM) | 0.12 (≈ 0.212 µM) |
| CC1(C)S[C@@H]2[C@H](NC(=O)[C@H](NC(=O)NS(=O)(=O)N3CCOCC3)c3ccccc3)C(=O)N2[C@H]1C(=O)O [XIV, D-6-[α-{3-(morpholino-sulfonyl)-ureido}-benzylcarbonamido]-penicillanic acid] | 3 (≈ 5.54 µM) | 25 (≈ 46.2 µM) | 100 (≈ 185 µM) | 25 (≈ 46.2 µM) | 1.5 (≈ 2.77 µM) | 50 (≈ 92.3 µM) | 1.5 (≈ 2.77 µM) | 100 (≈ 185 µM) | 100 (≈ 185 µM) | 6 (≈ 11.1 µM) | 100 (≈ 185 µM) | 0.25 (≈ 0.462 µM) | 25 (≈ 46.2 µM) | 100 (≈ 185 µM) | 50 (≈ 92.3 µM) | 6 (≈ 11.1 µM) | 50 (≈ 92.3 µM) | – | 12.5 (≈ 23.1 µM) | 3 (≈ 5.54 µM) |
| CC1(C)S[C@@H]2[C@H](NC(=O)[C@H](NC(=O)NS(N)(=O)=O)c3ccccc3)C(=O)N2[C@H]1C(=O)O [XVI, D-6-[α-{3-(aminosulfonyl)-ureido}-benzylcarbonamido]-penicillanic acid] | 25 (≈ 53 µM) | 6 (≈ 12.7 µM) | > 100 | 25 (≈ 53 µM) | 25 (≈ 53 µM) | 100 (≈ 212 µM) | 0.5 (≈ 1.06 µM) | 50 (≈ 106 µM) | > 100 | 3 (≈ 6.36 µM) | > 100 | 0.5 (≈ 1.06 µM) | 25 (≈ 53 µM) | > 100 | 50 (≈ 106 µM) | 50 (≈ 106 µM) | 100 (≈ 212 µM) | – | 6 (≈ 12.7 µM) | 0.12 (≈ 0.254 µM) |
| CC1(C)S[C@@H]2[C@H](NC(=O)[C@H](NS(N)(=O)=O)c3ccccc3)C(=O)N2[C@H]1C(=O)O [XVIII, D-6-[α-(aminosulfonylamino)-benzylcarbonamido]-penicillanic acid] | 6 (≈ 14 µM) | 1.5 (≈ 3.5 µM) | > 100 | 12.5 (≈ 29.2 µM) | 1.5 (≈ 3.5 µM) | 12.5 (≈ 29.2 µM) | 0.5 (≈ 1.17 µM) | > 100 | 25 (≈ 58.3 µM) | 0.5 (≈ 1.17 µM) | > 100 | 0.5 (≈ 1.17 µM) | 6 (≈ 14 µM) | 12.5 (≈ 29.2 µM) | 50 (≈ 117 µM) | 12.5 (≈ 29.2 µM) | 6 (≈ 14 µM) | – | 3 (≈ 7 µM) | 0.06 (≈ 0.14 µM) |

From patent US3945994A, “Novel acid compounds” (Gist-Brocades N.V., priority 1973, dated 1976)
